Laboratory results: paper PMC6467533 (Chembiochem : a European journal of chemical biology, 2018)

Target: Mtb TPP (Mycobacterium tuberculosis, UniProt P9WFZ5)
Type: biochemical

Mtb TPP, sequence (P9WFZ5 whole entry, looked up): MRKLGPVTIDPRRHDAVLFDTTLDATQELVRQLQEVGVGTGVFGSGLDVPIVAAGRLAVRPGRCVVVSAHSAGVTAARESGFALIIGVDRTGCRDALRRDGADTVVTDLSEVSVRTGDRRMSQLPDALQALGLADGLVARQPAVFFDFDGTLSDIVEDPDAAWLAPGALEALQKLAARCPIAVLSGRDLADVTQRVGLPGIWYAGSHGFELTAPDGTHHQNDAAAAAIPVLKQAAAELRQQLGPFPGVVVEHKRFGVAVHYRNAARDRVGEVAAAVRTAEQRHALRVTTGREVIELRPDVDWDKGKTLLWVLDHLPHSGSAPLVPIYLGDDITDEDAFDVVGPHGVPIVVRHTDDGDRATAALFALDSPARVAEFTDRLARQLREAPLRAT

O=P(O)(O)C[C@H]1O[C@H](O[C@H]2O[C@H](CO)[C@@H](O)[C@H](O)[C@H]2O)[C@H](O)[C@@H](O)[C@@H]1O [TMP, 6-Deoxy-6-(phosphonic acid)-α,α’-trehalose]
IC50 fold worse than the determined T6P KM, Mtb TPP: 2.8 fold
